Experiments:
Format in all cases: cell-based
[1] = tested on: Staphylococcus epidermidis; experiment: Contact germicidal screen, Staphylococcus epidermidis ATCC No. 12228
Experimental: (§1) The organisms used in the contact germicidal screen are all maintained as stock cultures on nutrient agar […] 4° C. They are transferred and biochemically diagnosed monthly. The five organisms used are: The media used are: […] Overnight cultures of the test organisms are grown in tryptose phosphate broth. After 15-16 hours, the cultures are centrifuged at […] for 15 minutes, and the supernatant replaced with fresh warm (37° C.) media. After two hours of incubation, the absorbance of the culture at 650 nm is determined and diluted with nutrient broth to 1×10^7 colony forming units per ml (using a previous determined standard curve: colony forming units/ml vs. absorbance at 650). The diluted cultures are maintained at 4°-8° C. throughout the screen. The compounds are weighed into sterile 100 ml volumetric flasks, and immediately before screening dissolved in one of the following buffers: 0.1 M NaOAc pH 4.6 or 0.1 M NaH2 PO4 pH 7.0. If solubility poses a problem, 10-30% methanol is used to effect solution. Two denaturing agents are also tested: […] Horse Serum restored with 100 ml distilled water and 10% Trition×100. When used, 2.5 ml of the denaturing agent is mixed with 2.5 ml of double strength test solution thirty minutes before the bacterial suspension is added. The screen is initiated when 0.2 ml of the bacterial suspension is added to 5.0 ml of the test solution contained in a sterile 25 ml glass stoppered flask. At intervals of 0.5, 2.5, 5.0, 10.0 and 15.0 minutes, a loopful of the inoculated test solution is subcultured into 5 ml of sterile nutrient broth and mixed with a vortex, the high dilution serving to stop the action of the compound. All of the subculture tubes are incubated at 37° C. and checked for signs of growth by turbidity at 1, 3, 5 and 7 days. The earliest subculture time at which no growth is present is considered the endpoint and is recorded as the sterilization time. An aliquot of 0.2 ml of the diluted culture is transferred to 5 ml of buffer to simulate 0.2 ml in 5 ml of test solution. (a) Purity: A loopful of the inoculated buffer is streaked onto nutrient agar to check colony morphology and lack of contaminants. (b) Viability: A loopful of the inoculated buffer is subcultured to 5 ml of nutrient broth as in the screen and incubated at 37° C. for 24 hours. (c) Dilution of the Test Solution: A loopful of the test solution is transferred to a 5 ml tube of nutrient broth, and a loopful of the inoculated buffer is transferred to the same tube of broth. […] (d) Purity of Organisms in the Test Solution: After the 15 minute subculture, a loopful of the inoculated test solution is streaked onto nutrient agar to insure that contamination has not occurred during the screen. (e) lack of Bactericidal Activity of Buffers and Other Solvents: Before a buffer or other solvent is used as a diluent, it is screened against the five organisms to insure that the buffer or solvent has no antibacterial activity itself.

Salmonella typhimurium = experiment: Contact germicidal screen, Salmonella typhimurium ATCC No. 13311
Experimental: as §1

Rhizopus oryzae = experiment: Contact fungicidal screen, Rhizopus oryzae; settings: 0.1M NaOAc pH 4.6
Experimental: The organisms used in the Contact Fungicidal Screen are a dermatophyte, trychophyton mentagrophytes, frequently associated with athlete's foot; a yeast, Candida albican, causative agent of thrush and vaginitis; a phycomycete, Rhizopus oryzae, commonly known as black bread mold; an ascomycete, Aspergillus fumagatis, found in chicken droppings and causing lung infections; and another dermatophyte, Microsporum canis, which causes ringworm. These organisms are maintained as stock cultures at 4° C. on agar slants of the following composition: dextrose 2%, Neopeptone (Difco) 1%, agar 2%. Fluid medium of the same nutrient composition (without agar) was used to test the viability of the organisms after exposure to the fungicide. This medium is also known as Sabouraud's medium.
[…]. The mycelial mat is removed from the surface of the agar using a sterile spatula. It is transferred to a heat sterilized glass tissue grinder and macerated with 25 ml of sterile physiological saline. The suspension is then filtered through sterile glass wool. The density of the sporangia spore suspension is determined by counting in a hemacytometer. The suspension is stored at 4° C. until it was used, at which time it was diluted with sterile physiological saline to a density of 5×10^6 spores per ml.
The compounds are weighed into heat sterilized 100 ml volumetric flasks and immediately before screening dissolved in 0.1 M NaOAc pH 4.6 buffer (test solutions).
The Aspergillus, Candida, Microsporum and Rhizopus species are screened in a slightly different manner. Basically, the procedure for the Contact Germicidal Efficiency Screen is utilized. After the test solutions are made up, 5 ml aliquots are pipetted into heat sterilized 25 ml glass stoppered erlenmeyer flasks. The screen is initiated when 0.5 ml of the 5×10^6 cell (spore) per ml suspension is added to the flask containing 5 ml of the test solution. At intervals of 0.5, 2.5, 5.0, 10.0 and 15.0 minutes, a 4 mm loopful of the inoculated test solution is subcultured into 7 mL of sterile fluid Sabouraud's medium and mixed on a vortex, the high dilution serving to stop the action of the compound. The subculture tubes are incubated at 25°-30° C. for ten days with daily observation for mycelial growth. The earliest subculture time at which no growth is present is considered the endpoint and is recorded as the sterilization time.
To insure the viability of the culture, a 0.5 ml aliquot of the 5×10^6 cells (spores) per ml suspension is transferred to 5 ml of the pH 4.6 buffer. A loopful of the inoculated buffer is then subcultured to 7 ml of fluid Sabouraud's medium and incubated at 25°-30° C. for ten days. To insure that the dilution of the test solution into the subculture medium does stop the action, a loopful of the test solution and a loopful of the inoculated buffer are transferred into the same subculture tube. This tube is also incubated at 25°-30° C. for ten days.

[2] = 10.0+ PPM, 0.1M NaOAc pH 4.6, screened simultaneously with four other compounds
[3] = 51.0 PPM, Triton X100 (10% solution):pH 4.6 buffer 1:1
[4] = 51.0 PPM, horse serum:pH 4.6 buffer 1:1
[5] = 300 PPM with 50% Horse Serum, 0.1M NaOAc pH 4.6
[6] = 300 PPM with 50% Triton X100, 0.1M NaOAc pH 4.6
[7] = 300 PPM, pH 4.6 buffer with 10% serum
[8] = 300 PPM, pH 4.6 buffer with 20% serum
[9] = 300 PPM, pH 4.6 buffer with 35% serum
[10] = 304.6 PPM, horse serum:pH 4.6 buffer 1:1
[11] = 304.8 PPM, Triton X100 (10% solution):pH 4.6 buffer 1:1
[12] = 606.9 PPM, pH 4.6 buffer with 33% serum
[13] = 899.25 PPM, pH 4.6 buffer with 25% serum
[14] = 1000 PPM with 50% Horse Serum, 0.1M NaOAc pH 4.6
[15] = 1001.2 PPM, horse serum:pH 4.6 buffer 1:1
[16] = 1016.0 PPM, 0.1M NaH2PO4 pH 7.0

In the case of `CC(C)(CC(=O)O)N(Cl)Cl` [(II)], the “Sterilization Time” value ([1]; 1.8 PPM, 0.1M NaOAc pH 4.6) is reported as 15 min, the “Sterilization Time” value ([1]; 4.5 PPM, 0.1M NaOAc pH 4.6) is reported as 10.0 min and the “Sterilization Time” value [1, 2] is reported as 2.5 min. The “Sterilization Time (summary)” value ([1]; 10 PPM, 0.1M NaOAc pH 4.6) was 2.5 min, the “Sterilization Time” value ([1]; 10.0 PPM, 0.1M NaOAc pH 4.6) was 5.0 min and the “Sterilization Time” value ([1]; 12.2 PPM, 0.1M NaOAc pH 4.6) was 2.5 min. For the same molecule, the “Sterilization Time” value ([1]; 32.1 PPM, 0.1M NaOAc pH 4.6) was 2.5 min, the “Sterilization Time” value [1, 3] was 2.5 min and the “Sterilization Time” value [1, 4] was 15 min. The “Sterilization Time” value ([1]; 71.7 PPM, 0.1M NaOAc pH 4.6) was 0.5 min, the “Sterilization Time (summary)” value ([1]; 100 PPM, 0.1M NaOAc pH 4.6) was 0.5 min and the “Sterilization Time” value ([1]; 104.7 PPM, 0.1M NaOAc pH 4.6) was 0.5 min. The “Sterilization Time” value ([1]; 107.8 PPM, 0.1M NaH2PO4 pH 7.0) was 15.0 min, the “Sterilization Time” value ([1]; 298.9 PPM, 0.1M NaOAc pH 4.6) was 0.5 min and the “Sterilization Time (summary)” value [1, 5] was 15 min. For the same molecule, the “Sterilization Time (summary)” value [1, 6] was 0.5 min, the “Sterilization Time” value [1, 7] was 0.5 min and the “Sterilization Time” value [1, 8] was 2.5 min. For the same molecule, the “Sterilization Time” value [1, 9] was 15.0 min, the “Sterilization Time” value [1, 10] was 15 min and the “Sterilization Time” value [1, 11] was 0.5 min. The “Sterilization Time” value ([1]; 316.6 PPM, 0.1M NaH2PO4 pH 7.0) was 10.0 min, the “Sterilization Time” value [1, 12] was 0.5 min and the “Sterilization Time” value [1, 13] was 0.5 min. The “Sterilization Time (summary)” value [1, 14] was 0.5 min, the “Sterilization Time (summary)” value ([1]; 1000 PPM, 0.1M NaOAc pH 4.6) was 0.5 min and the “Sterilization Time” value [1, 15] was 0.5 min. For the same molecule, the “Sterilization Time” value ([1]; 1014.8 PPM, 0.1M NaOAc pH 4.6) was 0.5 min, the “Sterilization Time” value [1, 16] was 2.5 min and the “Sterilization Time” value (Salmonella typhimurium; 1.8 PPM, 0.1M NaOAc pH 4.6) was 5.0 min. The “Sterilization Time” value (Salmonella typhimurium; 4.5 PPM, 0.1M NaOAc pH 4.6) was 2.5 min, the “Sterilization Time” value (Salmonella typhimurium; [2]) was 0.5 min and the “Sterilization Time (summary)” value (Salmonella typhimurium; 10 PPM, 0.1M NaOAc pH 4.6) was 0.5 min. The “Sterilization Time” value (Salmonella typhimurium; 10.0 PPM, 0.1M NaOAc pH 4.6) was 0.5 min, the “Sterilization Time” value (Salmonella typhimurium; 12.2 PPM, 0.1M NaOAc pH 4.6) was 0.5 min and the “Sterilization Time” value (Salmonella typhimurium; 32.1 PPM, 0.1M NaOAc pH 4.6) was 0.5 min. The “Sterilization Time” value (Salmonella typhimurium; [3]) was 0.5 min, the “Sterilization Time” value (Salmonella typhimurium; [4]) was 15 min and the “Sterilization Time” value (Salmonella typhimurium; 71.7 PPM, 0.1M NaOAc pH 4.6) was 0.5 min. For the same molecule, the “Sterilization Time (summary)” value (Salmonella typhimurium; 100 PPM, 0.1M NaOAc pH 4.6) was 0.5 min, the “Sterilization Time” value (Salmonella typhimurium; 104.7 PPM, 0.1M NaOAc pH 4.6) was 0.5 min and the “Sterilization Time” value (Salmonella typhimurium; 107.8 PPM, 0.1M NaH2PO4 pH 7.0) was 2.5 min. For the same molecule, the “Sterilization Time” value (Salmonella typhimurium; 298.9 PPM, 0.1M NaOAc pH 4.6) was 0.5 min, the “Sterilization Time (summary)” value (Salmonella typhimurium; [5]) was 2.5 min and the “Sterilization Time (summary)” value (Salmonella typhimurium; [6]) was 0.5 min. The “Sterilization Time” value (Salmonella typhimurium; [7]) was 0.5 min, the “Sterilization Time” value (Salmonella typhimurium; [8]) was 0.5 min and the “Sterilization Time” value (Salmonella typhimurium; [9]) was 2.5 min. The “Sterilization Time” value (Salmonella typhimurium; [10]) was 2.5 min, the “Sterilization Time” value (Salmonella typhimurium; [11]) was 0.5 min and the “Sterilization Time” value (Salmonella typhimurium; 316.6 PPM, 0.1M NaH2PO4 pH 7.0) was 2.5 min. For the same molecule, the “Sterilization Time” value (Salmonella typhimurium; [12]) was 0.5 min, the “Sterilization Time” value (Salmonella typhimurium; [13]) was 0.5 min and the “Sterilization Time (summary)” value (Salmonella typhimurium; [14]) was 0.5 min. For the same molecule, the “Sterilization Time (summary)” value (Salmonella typhimurium; 1000 PPM, 0.1M NaOAc pH 4.6) was 0.5 min, the “Sterilization Time” value (Salmonella typhimurium; [15]) was 0.5 min and the “Sterilization Time” value (Salmonella typhimurium; 1014.8 PPM, 0.1M NaOAc pH 4.6) was 0.5 min. The “Sterilization Time” value (Salmonella typhimurium; [16]) was 0.5 min, the “Sterilization Time” value (Rhizopus oryzae; 10 PPM) was 15 min and the “Sterilization Time” value (Rhizopus oryzae; 100 PPM) was 15 min. The “Sterilization Time” value (Rhizopus oryzae; 1000 PPM) was 10.0 min.
